The structures appear in SMILES notation. Where “and” joins values, the source holds several entries; their conditions need not be identical. Identical values can stand only once.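 1) Cells in 96-well plates. 2) Compound, 48 h, 5 concentrations. 3) Linear interpolation between surrounding doses. 4) Unreached endpoint = highest concentration. At the GI50, growth is halved. TGI denotes the concentration required for complete inhibition of growth.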 Bounds are passed on as bounds.

The test deals with MDA-MB-468 breast. Description: DTP human tumour cell line panel, 48 h.
Broadly, the GI50 is the concentration giving 50% growth inhibition. In general, TGI refers to the concentration giving total growth inhibition. On to `COc1ccc(N2C(=O)[C@H]3CC(C)c4c([nH]c5ccccc45)[C@H]3C2=O)cc1` (some centres undefined), for which the GI50 is 3630 nM and the TGI turned out to be 54100 nM.
Regarding `CN1CCN(Cc2ccc(NC(=O)c3cncc(C#Cc4cnc5ccc(NCCO)nn45)c3)cc2C(F)(F)F)CC1`, the GI50 was 227 nM and the TGI amounted to 1020 nM.
`Cc1ccc(-c2csc(NC(=O)CN3CCN(c4cc5c(cc4F)c(=O)c(C(=O)O)cn5C4CC4)CC3)n2)cc1`: the GI50 is 697 nM and the TGI is 6530 nM.
Taken in the same sequence, the figures for `COc1cc2ncnc(Nc3ccc(F)c(Cl)c3)c2cc1NC(=O)/C=C/CN1CCCCC1` were less than 10 nM and 5.38 nM.
Taken in the same sequence, the figures for `COc1ccc(C2=NN(C=O)C(c3cccc(Nc4ccnc5cc(Cl)ccc45)c3)C2)cc1` (centres undefined) were 417 nM and 3480 nM.
For the compound `COc1ccccc1/C=C/C(=O)c1ccccc1`, the GI50 was 7230 nM and the TGI is 28000 nM.
In the case of `COc1ccc(Cn2cc3c(c2)-c2oncc2CC3)cc1`, the GI50 is 3200 nM and the TGI was greater than 100000 nM.
As for `COc1cc(/C=C2\C(=O)Nc3ccc(N(C)C)cc32)cc(OC)c1OC`, the GI50 was 3250 nM and the total growth inhibition concentration (TGI) turned out to be 27200 nM.
For `COc1ccc2[nH]c(O)c(C(=Nc3ccc(N(C)C(=O)CN4CCN(C)CC4)cc3)c3ccccc3)c2c1`, in that order: 2600 nM and 6130 nM.
As for `Cn1c2c(c3ccc(Cl)c(Cl)c31)C(C#N)C1(CCNCC1)NC2=O` (centres undefined), the GI50 is 1630 nM and the TGI came out at 4290 nM.
In the case of `COc1cc(C(=O)Nc2cc3c(cc2Oc2cc(C)cc(C)c2)C(=O)N(C)[C@@H](CC(=O)N(C)O)C(=O)N3)c(Br)c(OC)c1OC`, the concentration for 50% growth inhibition (GI50) is less than 3.33 nM and the concentration for total growth inhibition (TGI) was less than 3.33 nM.
Consider `C=CC(=O)Nc1cc2c(Nc3ccc(F)c(Cl)c3)ncnc2cc1OCCCN1CCOCC1`, for which the GI50 is < 10 nM and 2.38 nM; the TGI was 194 nM and 101 nM.
As for `O=C(O)c1ccc2c(c1)CCCC(c1ccc(Cl)cc1Cl)=C2c1ccc(O[C@H]2CCN(CCCF)C2)cc1`, the GI50 was 12000 nM and the concentration for total growth inhibition (TGI) is 26900 nM.
Taken in the same sequence, the figures for `C/C=C1\NC(=O)[C@H]2CSSCCC=C[C@H](CC(=O)N[C@H](C(C)C)C(=O)N2)OC(=O)[C@H](C(C)C)NC1=O` were less than 10 nM and less than 12.2 nM.
For `Cc1cc(Cl)ccc1Nc1nc(C(F)(F)F)ccc1C(=O)N/N=C/c1ccc([N+](=O)[O-])cc1`, in that order: 1160 nM and 5160 nM.
Consider `CCOc1cc(/C=N\Nc2nnc(C)n2N)c(C)cc1N(CCCl)CCCl`, for which the GI50 is 321 nM and the TGI stood at 2230 nM.
With `NC(=O)c1cc2c3ccccc3ccn2c1-c1ccccc1`, the GI50 was 273 nM and the TGI was determined as 15200 nM.
For `C=C1C(=O)O[C@H]2[C@H]1CC/C(COC(=O)c1cc3cc(Cl)ccc3[nH]1)=C\CC[C@@]1(C)O[C@@H]21`, the GI50 was 1890 nM and the TGI is 4070 nM.
For `CNCCn1c(=O)c2cc(OC)c(OC)cc2c2ccc3cc4c(cc3c21)OCO4`, the GI50 is 74.3 nM and the TGI came to 244 nM.
For `CCCOc1ccc2nc(NC(=O)OC)[nH]c2c1`, in that order: 274 nM and greater than 100000 nM.
With `COc1cc2c(=O)n(CCN)c3c4cc5c(cc4ccc3c2cc1OC)OCO5`, the GI50 is 219 nM and the TGI stood at 881 nM.
Regarding `CN1C(=O)N(C)C2C1NN=c1s/c(=C\c3ccc(F)cc3)c(=O)n12` (centres undefined), the GI50 is 366 nM and the total growth inhibition concentration (TGI) is 4070 nM.
Taken in the same sequence, the figures for `COc1cc(-c2n/c(=C\c3c(O)[nH]c4ccc(Cl)cc34)cc3c2=Nc2ccccc2-3)ccc1F` were 1810 nM and 3810 nM.
With `Cc1nc2sccn2c1-c1csc(Nc2cccc(Cl)c2C)n1`, the GI50 is 1050 nM and the TGI is 11000 nM.
On to `Cc1sc2nc3c4ccccc4c(NCCCN(C)C)nn3c(=O)c2c1C`, for which the GI50 is 1270 nM and the TGI was 2800 nM.
Take `COC(=O)C1CCc2sc3ncnc(Nc4cn[nH]c4C(=O)Nc4ccc(CN5CCN(C)CC5)cc4)c3c21` (centres undefined): the GI50 was 1420 nM and the TGI was greater than 100000 nM.
For `Cc1cc2c(cc1C)N(C(=O)CCl)CCN2C(=O)CCl`, the GI50 is 199 nM and the TGI is 457 nM.
For `COc1ccc(-c2ccc(-c3ccc(C(=N)N)cn3)o2)cc1`, the GI50 is 2040 nM and the TGI amounted to 5690 nM.
As for `Fc1cc2[nH]ncc2c2c3c(c(-c4cn[nH]c4C(F)(F)F)nc12)C1CCC3C1` (centres undefined), the GI50 is 1100 nM and the concentration for total growth inhibition (TGI) turned out to be 3980 nM.
For `CCn1c(-c2nonc2N)nc2c(C#CC(C)(C)O)nc(OCCNC)cc21`, the GI50 was 3320 nM and the TGI turned out to be 10400 nM.
For `Cc1c(C(=O)NCCN2CCOCC2)cn2ncnc(Oc3ccc(NC(=O)Nc4ccc(Cl)c(C(F)(F)F)c4)cc3)c12`, in that order: 1520 nM and 3450 nM.
For `CC1(C)CC[C@]23CC[C@]4(C)[C@H](CC[C@@H]5[C@@]6(C)CC[C@H](N)C(C)(C)[C@@H]6CC[C@]54C)[C@H]2[C@H]1OC3`, in that order: 1700 nM and 3250 nM.
Taken in the same sequence, the figures for `CCOc1cccc(/C=N/NC(=O)C(=O)Nc2cccc(C(F)(F)F)c2)c1O` were 2050 nM and 15800 nM.
As for `CCn1c2ccc(O)cc2c2c(C)c3c[n+](C)ccc3c(C)c21`, the GI50 is 284 nM and the TGI came to 2600 nM.
Taken in the same sequence, the figures for `CC[PH+](CC)CC.O=COC1OC([S-])C(OC=O)C(OC=O)C1OC=O.[Au+]` (centres undefined) were 659 nM and 2310 nM.
Taken in the same sequence, the figures for `COc1ccc2cc(-c3c(-c4ccncc4)nc(-c4ccc(S(C)(=O)=O)cc4C)n3C)ccc2c1` were 3020 nM and 14500 nM.
Regarding `CCCCCCCCCCCCCCCCCC1=NCCN1C(=O)OCCO`, the GI50 is 1680 nM and the TGI was 3210 nM.

The values are drawn from PubChem BioAssay (NCI).
